PubChem BioAssay AID2060613 (Molecular Pharmacology Branch, DTP, NCI, 2025)

Tested on: 233499-124-R-J3-PDC complex spheroid viability
Assay: Anticancer human tumor 233499-124-R-J3-PDC patient-derived colon adenocarcinoma cell line growth inhibition [CLK]
Conditions: for IC50: curve of first compound; for viability, T/C: stronger effect = lower value
Outline: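 Patient-derived tumor cells grown as complex spheroids with HUVEC endothelial cells and mesenchymal stem cells, treated with drug combinations. Concentrations descend in half-log steps from near clinical Cmax, or from 10 microM if Cmax unknown.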

[1] = second compound 0.0316 µM, first compound 0.0316 µM
[2] = second compound 0.0316 µM, first compound 0.1 µM
[3] = second compound 0.0316 µM, first compound 0.316 µM
[4] = second compound 0.0316 µM, first compound 1 µM
[5] = second compound 0.0316 µM, first compound 3.16 µM
[6] = second compound 0.0316 µM, first compound 10 µM
[7] = second compound 0.1 µM, first compound 0.0316 µM
[8] = second compound 0.1 µM, first compound 0.1 µM
[9] = second compound 0.1 µM, first compound 0.316 µM
[10] = second compound 0.1 µM, first compound 1 µM
[11] = second compound 0.1 µM, first compound 3.16 µM
[12] = second compound 0.1 µM, first compound 10 µM
[13] = second compound 0.316 µM, first compound 0.0316 µM
[14] = second compound 0.316 µM, first compound 0.1 µM
[15] = second compound 0.316 µM, first compound 0.316 µM
[16] = second compound 0.316 µM, first compound 1 µM
[17] = second compound 0.316 µM, first compound 3.16 µM
[18] = second compound 0.316 µM, first compound 10 µM
[19] = second compound 1 µM, first compound 0.0316 µM
[20] = second compound 1 µM, first compound 0.1 µM
[21] = second compound 1 µM, first compound 0.316 µM
[22] = second compound 1 µM, first compound 1 µM
[23] = second compound 1 µM, first compound 3.16 µM
[24] = second compound 1 µM, first compound 10 µM
[25] = second compound 3.16 µM, first compound 0.0316 µM
[26] = second compound 3.16 µM, first compound 0.1 µM
[27] = second compound 3.16 µM, first compound 0.316 µM
[28] = second compound 3.16 µM, first compound 1 µM
[29] = second compound 3.16 µM, first compound 3.16 µM
[30] = second compound 3.16 µM, first compound 10 µM
[31] = second compound 10 µM, first compound 0.0316 µM
[32] = second compound 10 µM, first compound 0.1 µM
[33] = second compound 10 µM, first compound 0.316 µM
[34] = second compound 10 µM, first compound 1 µM
[35] = second compound 10 µM, first compound 3.16 µM
[36] = second compound 10 µM, first compound 10 µM
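Note: spheroids exposed to the drug combinations for seven days.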
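Throughout, for viability, T/C: percent viability relative to DMSO vehicle control wells taken as 100%.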

CC1(C)CCC(CN2CCN(c3ccc(C(=O)NS(=O)(=O)c4ccc(NCC5CCOCC5)c([N+](=O)[O-])c4)c(Oc4cnc5[nH]ccc5c4)c3)CC2)=C(c2ccc(Cl)cc2)C1 + CN1CCN(c2cc(C(=O)Nc3cc4cc(-c5cnn(C)c5)ccc4cn3)ccn2)CC1
IC50 (second compound 0.0316 µM): 6390 nM | IC50 (second compound 0.1 µM): 6370 nM | IC50 (second compound 0.316 µM): 5740 nM | IC50 (second compound 1 µM): < 31.6 nM | IC50 (second compound 3.16 µM): < 31.6 nM | IC50 (second compound 10 µM): < 31.6 nM | viability, T/C [1]: 93.1% | viability, T/C [2]: 104% | viability, T/C [3]: 102% | viability, T/C [4]: 112% | viability, T/C [5]: 113% | viability, T/C [6]: 15.2% | viability, T/C [7]: 96.4% | viability, T/C [8]: 109% | viability, T/C [9]: 100% | viability, T/C [10]: 109% | viability, T/C [11]: 112% | viability, T/C [12]: 14.5% | viability, T/C [13]: 86.1% | viability, T/C [14]: 97% | viability, T/C [15]: 89% | viability, T/C [16]: 98.6% | viability, T/C [17]: 93.8% | viability, T/C [18]: 9.92% | viability, T/C [19]: 0.68% | viability, T/C [20]: 5.6% | viability, T/C [21]: 5.7% | viability, T/C [22]: 0.77% | viability, T/C [23]: 0.88% | viability, T/C [24]: 1.46% | viability, T/C [25]: 0.9% | viability, T/C [26]: 0.86% | viability, T/C [27]: 1.07% | viability, T/C [28]: 0.81% | viability, T/C [29]: 1.05% | viability, T/C [30]: 0.73% | viability, T/C [31]: 0.67% | viability, T/C [32]: 0.49% | viability, T/C [33]: 0.43% | viability, T/C [34]: 0.49% | viability, T/C [35]: 0.56% | viability, T/C [36]: 0.29%

CC1COCCN1c1cc(C2(S(C)(=N)=O)CC2)nc(-c2ccnc3[nH]ccc23)n1 (stereo unspecified) + CN1CCN(c2cc(C(=O)Nc3cc4cc(-c5cnn(C)c5)ccc4cn3)ccn2)CC1
IC50 (second compound 0.0316 µM): > 10000 nM | IC50 (second compound 0.1 µM): > 10000 nM | IC50 (second compound 0.316 µM): 6970 nM | IC50 (second compound 1 µM): < 31.6 nM | IC50 (second compound 3.16 µM): < 31.6 nM | IC50 (second compound 10 µM): < 31.6 nM | viability, T/C [1]: 99.9% | viability, T/C [2]: 109% | viability, T/C [3]: 98.3% | viability, T/C [4]: 106% | viability, T/C [5]: 90.3% | viability, T/C [6]: 66.6% | viability, T/C [7]: 96.6% | viability, T/C [8]: 109% | viability, T/C [9]: 103% | viability, T/C [10]: 90.8% | viability, T/C [11]: 75.7% | viability, T/C [12]: 53.6% | viability, T/C [13]: 94.2% | viability, T/C [14]: 93.3% | viability, T/C [15]: 98.9% | viability, T/C [16]: 86.7% | viability, T/C [17]: 71.2% | viability, T/C [18]: 40.5% | viability, T/C [19]: 3.94% | viability, T/C [20]: 1.1% | viability, T/C [21]: 0.55% | viability, T/C [22]: 1.34% | viability, T/C [23]: 1.62% | viability, T/C [24]: 0.81% | viability, T/C [25]: 0.77% | viability, T/C [26]: 0.89% | viability, T/C [27]: 1.57% | viability, T/C [28]: 0.66% | viability, T/C [29]: 0.84% | viability, T/C [30]: 0.92% | viability, T/C [31]: 0.55% | viability, T/C [32]: 0.49% | viability, T/C [33]: 0.53% | viability, T/C [34]: 0.5% | viability, T/C [35]: 0.6% | viability, T/C [36]: 0.44%

NC(=O)C(=Cn1cnc(-c2cc(C(F)(F)F)cc(C(F)(F)F)c2)n1)c1cncnc1 + CN1CCN(c2cc(C(=O)Nc3cc4cc(-c5cnn(C)c5)ccc4cn3)ccn2)CC1
IC50 (second compound 0.0316 µM): 181 nM | IC50 (second compound 0.1 µM): 76.8 nM | IC50 (second compound 0.316 µM): < 9.49 nM | IC50 (second compound 1 µM): < 9.49 nM | IC50 (second compound 3.16 µM): < 9.49 nM | IC50 (second compound 10 µM): < 9.49 nM | viability, T/C (second compound 0.0316 µM, first compound 0.00949 µM): 72.5% | viability, T/C (second compound 0.0316 µM, first compound 0.03 µM): 85.6% | viability, T/C (second compound 0.0316 µM, first compound 0.0949 µM): 67.3% | viability, T/C (second compound 0.0316 µM, first compound 0.3 µM): 35.2% | viability, T/C (second compound 0.0316 µM, first compound 0.949 µM): 10.4% | viability, T/C (second compound 0.0316 µM, first compound 3 µM): 2.15% | viability, T/C (second compound 0.1 µM, first compound 0.00949 µM): 102% | viability, T/C (second compound 0.1 µM, first compound 0.03 µM): 96.2% | viability, T/C (second compound 0.1 µM, first compound 0.0949 µM): 39.2% | viability, T/C (second compound 0.1 µM, first compound 0.3 µM): 7.63% | viability, T/C (second compound 0.1 µM, first compound 0.949 µM): 0.53% | viability, T/C (second compound 0.1 µM, first compound 3 µM): 0.43% | viability, T/C (second compound 0.316 µM, first compound 0.00949 µM): 22.2% | viability, T/C (second compound 0.316 µM, first compound 0.03 µM): 13.2% | viability, T/C (second compound 0.316 µM, first compound 0.0949 µM): 0.29% | viability, T/C (second compound 0.316 µM, first compound 0.3 µM): 0.23% | viability, T/C (second compound 0.316 µM, first compound 0.949 µM): 0.39% | viability, T/C (second compound 0.316 µM, first compound 3 µM): 1.07% | viability, T/C (second compound 1 µM, first compound 0.00949 µM): 0.3% | viability, T/C (second compound 1 µM, first compound 0.03 µM): 0.31% | viability, T/C (second compound 1 µM, first compound 0.0949 µM): 0.31% | viability, T/C (second compound 1 µM, first compound 0.3 µM): 0.25% | viability, T/C (second compound 1 µM, first compound 0.949 µM): 0.48% | viability, T/C (second compound 1 µM, first compound 3 µM): 0.23% | viability, T/C (second compound 3.16 µM, first compound 0.00949 µM): 0.3% | viability, T/C (second compound 3.16 µM, first compound 0.03 µM): 0.26% | viability, T/C (second compound 3.16 µM, first compound 0.0949 µM): 0.25% | viability, T/C (second compound 3.16 µM, first compound 0.3 µM): 0.25% | viability, T/C (second compound 3.16 µM, first compound 0.949 µM): 0.21% | viability, T/C (second compound 3.16 µM, first compound 3 µM): 0.19% | viability, T/C (second compound 10 µM, first compound 0.00949 µM): 0.13% | viability, T/C (second compound 10 µM, first compound 0.03 µM): 0.12% | viability, T/C (second compound 10 µM, first compound 0.0949 µM): 0.19% | viability, T/C (second compound 10 µM, first compound 0.3 µM): 0.17% | viability, T/C (second compound 10 µM, first compound 0.949 µM): 0.19% | viability, T/C (second compound 10 µM, first compound 3 µM): 0.21%
